For one compound, IC50 results are on record in BindingDB's records for doi:10.1021/jm970101g (Abbott Laboratories, 1997).

Structures are written as SMILES.

In this assay the target is Endothelin-1 receptor (Rattus norvegicus) (UniProt P26684). Nature of the assay: Ability to block the ET-1-induced hydrolysis of inositol phosphate in Endothelin A receptor of MMQ cells.
Sequence of Endothelin-1 receptor (Rattus norvegicus) (P26684 whole entry, looked up): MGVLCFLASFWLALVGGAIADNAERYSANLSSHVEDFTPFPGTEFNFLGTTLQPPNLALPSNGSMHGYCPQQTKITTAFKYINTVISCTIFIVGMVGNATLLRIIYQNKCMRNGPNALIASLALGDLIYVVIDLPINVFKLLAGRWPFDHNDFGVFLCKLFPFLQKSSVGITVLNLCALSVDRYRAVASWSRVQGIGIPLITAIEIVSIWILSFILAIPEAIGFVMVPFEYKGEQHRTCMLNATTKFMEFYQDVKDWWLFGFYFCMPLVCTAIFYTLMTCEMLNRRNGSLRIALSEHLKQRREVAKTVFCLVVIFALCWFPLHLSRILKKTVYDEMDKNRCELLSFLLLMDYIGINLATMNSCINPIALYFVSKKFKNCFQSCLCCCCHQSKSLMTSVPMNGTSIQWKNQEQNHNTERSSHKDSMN

Turning to `CCCN(CCN1C[C@H](c2ccc3c(c2)OCO3)[C@@H](C(=O)O)[C@@H]1c1ccc(OC)c(F)c1)S(=O)(=O)CCCCl` [(2R,3R,4S)-4-Benzo[1,3]dioxol-5-yl-1-{2-[(3-chloro-propane-1-sulfonyl)-propyl-amino]-ethyl}-2-(3-fluoro-4-methoxy-phenyl)-pyrrolidine-3-carboxylic acid], the 50% inhibitory concentration (IC50) (as a rule, the concentration that inhibits the measured activity by half) was found to be 550 pM.
